These results are taken from PubChem BioAssay AID1919006 (Molecular Pharmacology Branch, DTP, NCI, 2023).

SMILES strings stand for the structures. Several values for one entry are separate records, joined by “and”; a condition that tells them apart may be missing. Identical values can stand only once. A value given as a limit tells only on which side of the number the result lay.

This assay concerns 885512-296-R-J2-PDC complex spheroid growth, % test/control. Briefly: Anticancer human tumor 885512-296-R-J2-PDC patient-derived breast carcinoma cell line growth inhibition [AhR]. The settings on record: for viability, T/C: stronger effect = lower value. Put shortly: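 Complex tumor spheroids co-cultured with HUVEC and human MSC stroma; AhR antagonists tested in combination with standard-of-care and investigational agents. Top concentration at or near clinical Cmax (else 10 microM), half-log dilutions; growth expressed as percent test/control.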
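Further: spheroids exposed to compounds for seven days.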

The term viability, T/C denotes the result in the treated group divided by that in the control group, in per cent. As a reminder, the IC50 is the midpoint of a concentration-inhibition curve. Turning to `CC[C@@]1(O)C(=O)OCc2c1cc1n(c2=O)Cc2cc3c(CN(C)C)c(O)ccc3nc2-1`, the viability, T/C was 105% and 92.5% and 101% (compound 0.000316 µM); 101% and 96.7% and 108% (compound 0.001 µM); 65.5% and 69.2% and 88% (compound 0.00316 µM); 31.4% and 22.4% and 59.5% (compound 0.01 µM); 6.59% and 7.5% and 7.58% (compound 0.0316 µM); 6.75% and 6.73% and 5.44% (compound 0.1 µM). Further, the IC50 (curve of compound) was 5.36 nM and 5.11 nM and 11.7 nM.

As for `COc1cccc2c1C(=O)c1c(O)c3c(c(O)c1C2=O)CC(O)(C(=O)CO)CC3OC1CC(N)C(O)C(C)O1` (configuration not stated) + Cc1cncc(-c2nc(NCCc3c[nH]c4ccccc34)c3ncn(C(C)C)c3n2)c1, the IC50 was less than 31.6 nM (curve of first compound, second compound 0.1 µM); less than 31.6 nM (curve of first compound, second compound 0.316 µM); less than 31.6 nM (curve of first compound, second compound 1 µM); less than 31.6 nM (curve of first compound, second compound 3.16 µM); less than 31.6 nM (curve of first compound, second compound 10 µM). For the same compound, the viability, T/C by setting is: (second compound 0.1 µM, first compound 0.0316 µM) 23.9%; (second compound 0.1 µM, first compound 0.1 µM) 15.2%; (second compound 0.1 µM, first compound 0.316 µM) 5.94%; (second compound 0.1 µM, first compound 1 µM) 0.65%; (second compound 0.1 µM, first compound 3.16 µM) 2.45%; (second compound 0.1 µM, first compound 10 µM) 1.44%. Further, the viability, T/C was 24.4% (second compound 0.316 µM, first compound 0.0316 µM); 19.5% (second compound 0.316 µM, first compound 0.1 µM); 6.25% (second compound 0.316 µM, first compound 0.316 µM); 0.34% (second compound 0.316 µM, first compound 1 µM); 2.13% (second compound 0.316 µM, first compound 3.16 µM); 1.46% (second compound 0.316 µM, first compound 10 µM). In addition, the viability, T/C by setting is: (second compound 1 µM, first compound 0.0316 µM) 19.7%; (second compound 1 µM, first compound 0.1 µM) 17.9%; (second compound 1 µM, first compound 0.316 µM) 5.13%; (second compound 1 µM, first compound 1 µM) 0.84%; (second compound 1 µM, first compound 3.16 µM) 1.28%; (second compound 1 µM, first compound 10 µM) 1.33%. For the same compound, the viability, T/C was 17.6% (second compound 3.16 µM, first compound 0.0316 µM); 12.1% (second compound 3.16 µM, first compound 0.1 µM); 3.2% (second compound 3.16 µM, first compound 0.316 µM); 0.73% (second compound 3.16 µM, first compound 1 µM); 0.57% (second compound 3.16 µM, first compound 3.16 µM); 0.58% (second compound 3.16 µM, first compound 10 µM). Besides, the viability, T/C is, setting by setting: (second compound 10 µM, first compound 0.0316 µM) 11.9%; (second compound 10 µM, first compound 0.1 µM) 5.06%; (second compound 10 µM, first compound 0.316 µM) 0.48%; (second compound 10 µM, first compound 1 µM) 0.21%; (second compound 10 µM, first compound 3.16 µM) 0.27%; (second compound 10 µM, first compound 10 µM) 0.26%.
